Laboratory results as given in PubChem BioAssay (NCI).
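GI50 is the concentration that inhibits growth by half. The concentration for full growth arrest is given as TGI.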

Columns and labels:
Test in all cases: DTP human tumour cell line panel, 384-well format
NCI/ADR-RES ovarian = system: NCI/ADR-RES ovarian
ACHN renal = system: ACHN renal
EKVX NSCLC = system: EKVX NSCLC
UO-31 renal = system: UO-31 renal
HCT-116 colon = system: HCT-116 colon
RPMI-8226 leukemia = system: RPMI-8226 leukemia
K-562 leukemia = system: K-562 leukemia
NCI-H322M lung = system: NCI-H322M lung
HOP-62 NSCLC = system: HOP-62 NSCLC
SN12C renal = system: SN12C renal
MDA-MB-468 breast = system: MDA-MB-468 breast
TK-10 renal = system: TK-10 renal
UACC-257 melanoma = system: UACC-257 melanoma
MOLT-4 leukemia = system: MOLT-4 leukemia
786-0 renal = system: 786-0 renal
HS 578T breast = system: HS 578T breast
NCI-H226 lung = system: NCI-H226 lung
NCI-H460 NSCLC = system: NCI-H460 NSCLC
HCT-15 colon = system: HCT-15 colon
COLO 205 colon = system: COLO 205 colon
MDA-MB-435 melanoma = system: MDA-MB-435 melanoma
OVCAR-3 ovarian = system: OVCAR-3 ovarian
SK-MEL-28 melanoma = system: SK-MEL-28 melanoma
KM12 colon = system: KM12 colon
CCRF-CEM leukemia = system: CCRF-CEM leukemia
SW-620 colon = system: SW-620 colon
T-47D breast = system: T-47D breast
SF-295 CNS = system: SF-295 CNS
SNB-75 CNS = system: SNB-75 CNS
HCC-2998 colon = system: HCC-2998 colon
SF-268 CNS = system: SF-268 CNS
SK-OV-3 ovarian = system: SK-OV-3 ovarian
OVCAR-5 ovarian = system: OVCAR-5 ovarian
OVCAR-8 ovarian = system: OVCAR-8 ovarian
SNB-19 CNS = system: SNB-19 CNS
RXF 393 renal = system: RXF 393 renal
HOP-92 NSCLC = system: HOP-92 NSCLC
A498 renal = system: A498 renal
PC-3 prostate = system: PC-3 prostate
MCF7 breast = system: MCF7 breast
OVCAR-4 ovarian = system: OVCAR-4 ovarian
M14 melanoma = system: M14 melanoma
SK-MEL-5 melanoma = system: SK-MEL-5 melanoma
CAKI-1 renal = system: CAKI-1 renal
HL-60(TB) leukemia = system: HL-60(TB) leukemia
BT-549 breast = system: BT-549 breast
NCI-H522 lung = system: NCI-H522 lung
SF-539 CNS = system: SF-539 CNS
HT29 colon = system: HT29 colon
MALME-3M melanoma = system: MALME-3M melanoma
A549 NSCLC = system: A549 NSCLC
NCI-H23 lung = system: NCI-H23 lung
U251 glioblastoma = system: U251 glioblastoma
IGROV1 ovarian = system: IGROV1 ovarian

SMILES: COc1cc(C(=O)NC2CCN(C)CC2)ccc1Nc1ncc2c(n1)N(C1CCCC1)CC(F)(F)C(=O)N2C
- GI50 (NCI/ADR-RES ovarian): 1660 nM
- TGI (NCI/ADR-RES ovarian): 3980 nM
- GI50 (ACHN renal): 666 nM
- TGI (ACHN renal): 14100 nM
- GI50 (EKVX NSCLC): 79.3 nM
- TGI (EKVX NSCLC): 2700 nM
- GI50 (UO-31 renal): 1310 nM
- TGI (UO-31 renal): 7870 nM
- GI50 (HCT-116 colon): < 10 nM
- TGI (HCT-116 colon): 1170 nM
- GI50 (RPMI-8226 leukemia): 18.8 nM
- TGI (RPMI-8226 leukemia): 43.7 nM
- GI50 (K-562 leukemia): < 10 nM
- TGI (K-562 leukemia): 19.7 nM
- GI50 (NCI-H322M lung): 842 nM
- TGI (NCI-H322M lung): 11800 nM
- GI50 (HOP-62 NSCLC): < 10 nM
- TGI (HOP-62 NSCLC): 2210 nM
- GI50 (SN12C renal): 43.9 nM
- TGI (SN12C renal): 1750 nM
- GI50 (MDA-MB-468 breast): < 10 nM
- TGI (MDA-MB-468 breast): < 10 nM
- GI50 (TK-10 renal): 1090 nM
- TGI (TK-10 renal): 4950 nM
- GI50 (UACC-257 melanoma): 21.7 nM
- TGI (UACC-257 melanoma): 2060 nM
- GI50 (MOLT-4 leukemia): < 10 nM
- TGI (MOLT-4 leukemia): < 10 nM
- GI50 ([…]-0 renal): 41 nM
- TGI (786-0 renal): 1350 nM
- GI50 (HS 578T breast): < 10 nM
- TGI (HS 578T breast): 31.1 nM
- GI50 (NCI-H226 lung): 1560 nM
- TGI (NCI-H226 lung): 6190 nM
- GI50 (NCI-H460 NSCLC): 11.5 nM
- TGI (NCI-H460 NSCLC): 35.5 nM
- GI50 (HCT-15 colon): 219 nM
- TGI (HCT-15 colon): 1220 nM
- GI50 (COLO 205 colon): < 10 nM
- TGI (COLO 205 colon): 10700 nM
- GI50 (MDA-MB-435 melanoma): < 10 nM
- TGI (MDA-MB-435 melanoma): 12.2 nM
- GI50 (OVCAR-3 ovarian): < 10 nM
- TGI (OVCAR-3 ovarian): < 10 nM
- GI50 (SK-MEL-28 melanoma): 46.4 nM
- TGI (SK-MEL-28 melanoma): 4740 nM
- GI50 (KM12 colon): < 10 nM
- TGI (KM12 colon): 11200 nM
- GI50 (CCRF-CEM leukemia): < 10 nM
- TGI (CCRF-CEM leukemia): < 10 nM
- GI50 (SW-620 colon): < 10 nM
- TGI (SW-620 colon): 97.4 nM
- GI50 (T-47D breast): 28.2 nM
- TGI (T-47D breast): 365 nM
- GI50 (SF-295 CNS): 29.9 nM
- TGI (SF-295 CNS): 134 nM
- GI50 (SNB-75 CNS): 57.4 nM
- TGI (SNB-75 CNS): 7490 nM
- GI50 (HCC-2998 colon): 11.6 nM
- TGI (HCC-2998 colon): 39.6 nM
- GI50 (SF-268 CNS): < 10 nM
- TGI (SF-268 CNS): < 10 nM
- GI50 (SK-OV-3 ovarian): 11.4 nM
- TGI (SK-OV-3 ovarian): 494 nM
- GI50 (OVCAR-5 ovarian): 12.2 nM
- TGI (OVCAR-5 ovarian): 1290 nM
- GI50 (OVCAR-8 ovarian): 12.3 nM
- TGI (OVCAR-8 ovarian): 29.3 nM
- GI50 (SNB-19 CNS): < 10 nM
- TGI (SNB-19 CNS): 3080 nM
- GI50 (RXF 393 renal): < 10 nM
- TGI (RXF 393 renal): 35 nM
- GI50 (HOP-92 NSCLC): 20.7 nM
- TGI (HOP-92 NSCLC): 902 nM
- GI50 (A498 renal): 106 nM
- TGI (A498 renal): 12300 nM
- GI50 (PC-3 prostate): 33.8 nM
- TGI (PC-3 prostate): 13200 nM
- GI50 (MCF7 breast): < 10 nM
- TGI (MCF7 breast): 1440 nM
- GI50 (OVCAR-4 ovarian): 1640 nM
- TGI (OVCAR-4 ovarian): 7570 nM
- GI50 (M14 melanoma): 12.5 nM
- TGI (M14 melanoma): 74.3 nM
- GI50 (SK-MEL-5 melanoma): < 10 nM
- TGI (SK-MEL-5 melanoma): 180 nM
- GI50 (CAKI-1 renal): 194 nM
- TGI (CAKI-1 renal): 10600 nM
- GI50 (HL-60(TB) leukemia): < 10 nM
- TGI (HL-60(TB) leukemia): < 10 nM
- GI50 (BT-549 breast): 11.3 nM
- TGI (BT-549 breast): 159 nM
- GI50 (NCI-H522 lung): < 10 nM
- TGI (NCI-H522 lung): < 10 nM
- GI50 (SF-539 CNS): 17.2 nM
- TGI (SF-539 CNS): 263 nM
- GI50 (HT29 colon): < 10 nM
- TGI (HT29 colon): 21.5 nM
- GI50 (MALME-3M melanoma): 29.5 nM
- TGI (MALME-3M melanoma): 1590 nM
- GI50 (A549 NSCLC): < 10 nM
- TGI (A549 NSCLC): 707 nM
- GI50 (NCI-H23 lung): < 10 nM
- TGI (NCI-H23 lung): 20 nM
- GI50 (U251 glioblastoma): < 10 nM
- TGI (U251 glioblastoma): 1440 nM
- GI50 (IGROV1 ovarian): 18.6 nM
- TGI (IGROV1 ovarian): 2070 nM
